In ChEMBL document CHEMBL4680292, “Neothalfine, a potent natural anti-tumor agent against metastatic colorectal cancer and its primary mechanism” (Bioorg Med Chem, 2021):
Activity calls are given as the source filed them. No cut-off for these calls is given here.

Assays:
[1] = tested on: SW-620; assay: Induction apoptosis in human SW-620 cells assessed as increase in necrotic cells apoptotic cells at 6 uM measured after 72 hrs by Annexin VFITC /PI staining with flow cytometry (reference value: 0.24%); assay type: functional
[2] = tested on: SW-620; assay: Induction apoptosis in human SW-620 cells assessed as increase in necrotic cells apoptotic cells at 12 uM measured after 72 hrs by Annexin VFITC /PI staining with flow cytometry (reference value: 0.24%); assay type: functional
[3] = tested on: T84; assay: Anticancer activity against human T84 cells assessed as inhibition of cell proliferation measured after 72 hrs by MTT assay; assay type: functional, cell-based; settings: T84, 72 h
[4] = tested on: SW-620; assay: Induction apoptosis in human SW-620 cells assessed as increase in early apoptotic cells at 6 uM measured after 72 hrs by Annexin VFITC /PI staining with flow cytometry (reference value: 4.08%); assay type: functional
[5] = tested on: HCT-116; assay: Anticancer activity against human HCT-116 cells assessed as inhibition of cell proliferation measured after 72 hrs by MTT assay; assay type: functional, cell-based; settings: HCT-116, 72 h
[6] = tested on: SW-620; assay: Induction of cell cycle arrest in human SW-620 cells assessed as increase in number of cells at G0/G1 phase at 6 uM measured after 72 hrs by PI staining using flow cytometry (reference value: 60.05%); assay type: functional
[7] = tested on: SW-620; assay: Inhibition of colony formation in human SW-620 cells assessed as effect on tumor sphere formation at 30 nM by crystal violet staining based microscopic analysis; assay type: functional, cell-based
[8] = tested on: SW-620; assay: Induction apoptosis in human SW-620 cells assessed as increase in late apoptotic cells at 12 uM measured after 72 hrs by Annexin VFITC /PI staining with flow cytometry (reference value: 3.18%); assay type: functional
[9] = tested on: SW-620; assay: Induction apoptosis in human SW-620 cells assessed as increase in early apoptotic cells at 12 uM measured after 72 hrs by Annexin VFITC /PI staining with flow cytometry (reference value: 4.08%); assay type: functional
[10] = tested on: SW-620; assay: Induction apoptosis in human SW-620 cells assessed as increase in live cells at 6 uM measured after 72 hrs by Annexin VFITC /PI staining with flow cytometry (reference value: 92.6%); assay type: functional
[11] = tested on: SW-620; assay: Anticancer activity against human SW-620 cells assessed as inhibition of cell proliferation measured after 72 hrs by MTT assay; assay type: functional, cell-based; settings: SW-620, 72 h
[12] = tested on: SW-620; assay: Induction apoptosis in human SW-620 cells assessed as increase in live cells at 12 uM measured after 72 hrs by Annexin VFITC /PI staining with flow cytometry (reference value: 92.6%); assay type: functional
[13] = tested on: SW-620; assay: Induction apoptosis in human SW-620 cells assessed as increase in late apoptotic cells at 6 uM measured after 72 hrs by Annexin VFITC /PI staining with flow cytometry (reference value: 3.18%); assay type: functional
[14] = tested on: SW-620; assay: Induction of cell cycle arrest in human SW-620 cells assessed as increase in number of cells at G2/M phase at 6 uM measured after 72 hrs by PI staining using flow cytometry (reference value: 27.08%); assay type: functional
[15] = tested on: SW-620; assay: Inhibition of colony formation in human SW-620 cells assessed as damaged tumor sphere at 3 to 6 uM by crystal violet staining based microscopic analysis; assay type: functional, cell-based; settings: dose 3-6 µM
[16] = tested on: SW-620; assay: Induction of cell cycle arrest in human SW-620 cells assessed as increase in number of cells at G0/G1 phase at 7 nM measured after 72 hrs by PI staining using flow cytometry (reference value: 60.05%); assay type: functional
[17] = tested on: MDA-MB-231; assay: Cytotoxicity against human MDA-MB-231 cells assessed as reduction in cell growth at 15 uM measured after 48 hrs; assay type: functional, cell-based
[18] = tested on: SK-OV-3; assay: Cytotoxicity against human SK-OV-3 cells assessed as reduction in cell growth at 15 uM measured after 48 hrs; assay type: functional, cell-based
[19] = tested on: SW-620; assay: Induction apoptosis in human SW-620 cells assessed as increase in live cells at 7 nM measured after 72 hrs by Annexin VFITC /PI staining with flow cytometry (reference value: 92.6%); assay type: functional
[20] = tested on: HCT-116; assay: Cytotoxicity against human HCT-116 cells assessed as reduction in cell growth at 15 uM measured after 48 hrs; assay type: functional, cell-based
[21] = tested on: T84; assay: Cytotoxicity against human T84 cells reduction in cell growth at 15 uM measured after 48 hrs; assay type: functional, cell-based
[22] = tested on: SW-620; assay: Induction of apoptosis in human SW-620 cells assessed as increase in cleaved caspase 3/7 level at 7 nM relative to control; assay type: functional
[23] = tested on: SW-620; assay: Cytotoxicity against human SW-620 cells assessed as reduction in cell growth at 15 uM measured after 48 hrs; assay type: functional, cell-based
[24] = tested on: SW-620; assay: Induction apoptosis in human SW-620 cells assessed as increase in necrotic cells apoptotic cells at 7 nM measured after 72 hrs by Annexin VFITC /PI staining with flow cytometry (reference value: 0.24%); assay type: functional
[25] = tested on: NCI-H1299; assay: Cytotoxicity against human NCI-H1299 cells assessed as reduction in cell growth at 15 uM measured after 48 hrs; assay type: functional, cell-based
[26] = tested on: NCI-H1299; assay: Anticancer activity against human NCI-H1299 cells assessed as inhibition of cell proliferation measured after 72 hrs by MTT assay; assay type: functional, cell-based; settings: NCI-H1299, 72 h
[27] = tested on: SW-620; assay: Induction of mitochondrial membrane potential loss in human SW-620 cells at 3.5 nM by JC-1 staining based fluorescence microscopic analysis; assay type: functional, cell-based
[28] = tested on: PC-3; assay: Anticancer activity against human PC-3 cells assessed as inhibition of cell proliferation measured after 72 hrs by MTT assay; assay type: functional, cell-based; settings: PC-3, 72 h
[29] = tested on: SMMC-7721; assay: Anticancer activity against human SMMC-7721 cells assessed as inhibition of cell proliferation measured after 72 hrs by MTT assay; assay type: functional, cell-based; settings: SMMC-7721, 72 h
[30] = tested on: PC-3; assay: Cytotoxicity against human PC-3 cells assessed as reduction in cell growth at 15 uM measured after 48 hrs; assay type: functional, cell-based
[31] = tested on: SK-OV-3; assay: Anticancer activity against human SK-OV-3 cells assessed as inhibition of cell proliferation measured after 72 hrs by MTT assay; assay type: functional, cell-based; settings: SK-OV-3, 72 h
[32] = tested on: SW-620; assay: Induction apoptosis in human SW-620 cells assessed as increase in early apoptotic cells at 7 nM measured after 72 hrs by Annexin VFITC /PI staining with flow cytometry (reference value: 4.08%); assay type: functional
[33] = tested on: SW-620; assay: Induction of apoptosis in human SW-620 cells assessed as increase in cleaved caspase 3/7 level at 3.5 nM relative to control; assay type: functional
[34] = tested on: T98G; assay: Cytotoxicity against human T98G cells assessed as reduction in cell growth at 15 uM measured after 48 hrs; assay type: functional, cell-based
[35] = tested on: SW-620; assay: Induction apoptosis in human SW-620 cells assessed as increase in late apoptotic cells at 15 nM measured after 72 hrs by Annexin VFITC /PI staining with flow cytometry (reference value: 3.18%); assay type: functional
[36] = tested on: SW-620; assay: Inhibition of colony formation in human SW-620 cells assessed as damaged tumor spheres at 3.5 to 30 nM by crystal violet staining based microscopic analysis; assay type: functional, cell-based; settings: dose 3.5-30 nM
[37] = tested on: MDA-MB-231; assay: Anticancer activity against human MDA-MB-231 cells assessed as inhibition of cell proliferation measured after 72 hrs by MTT assay; assay type: functional, cell-based; settings: MDA-MB-231, 72 h
[38] = tested on: MHCC97H; assay: Cytotoxicity against human MHCC97H cells assessed as reduction in cell growth at 15 uM measured after 48 hrs; assay type: functional, cell-based
[39] = tested on: SMMC-7721; assay: Cytotoxicity against human SMMC-7721 cells assessed as reduction in cell growth at 15 uM measured after 48 hrs; assay type: functional, cell-based
[40] = tested on: SW-620; assay: Induction apoptosis in human SW-620 cells assessed as increase in early apoptotic cells at 15 nM measured after 72 hrs by Annexin VFITC /PI staining with flow cytometry (reference value: 4.08%); assay type: functional
[41] = tested on: SW-620; assay: Induction apoptosis in human SW-620 cells assessed as increase in late apoptotic cells at 7 nM measured after 72 hrs by Annexin VFITC /PI staining with flow cytometry (reference value: 3.18%); assay type: functional
[42] = tested on: SW-620; assay: Induction of apoptosis in human SW-620 cells assessed as increase in cleaved caspase 3/7 level at 11.5 nM relative to control; assay type: functional
[43] = tested on: SW-620; assay: Induction apoptosis in human SW-620 cells assessed as increase in necrotic cells apoptotic cells at 15 nM measured after 72 hrs by Annexin VFITC /PI staining with flow cytometry (reference value: 0.24%); assay type: functional
[44] = tested on: SW-620; assay: Induction apoptosis in human SW-620 cells assessed as increase in live cells at 15 nM measured after 72 hrs by Annexin VFITC /PI staining with flow cytometry (reference value: 92.6%); assay type: functional
[45] = tested on: SW-620; assay: Induction of apoptosis in human SW-620 cells assessed as increase in cleaved caspase 3/7 level at 15 nM relative to control; assay type: functional
[46] = tested on: SW-620; assay: Induction of cell cycle arrest in human SW-620 cells assessed as increase in number of cells at G2/M phase at 7 nM measured after 72 hrs by PI staining using flow cytometry (reference value: 27.08%); assay type: functional
[47] = tested on: MHCC97H; assay: Anticancer activity against human MHCC97H cells assessed as inhibition of cell proliferation measured after 72 hrs by MTT assay; assay type: functional, cell-based
[48] = tested on: T98G; assay: Anticancer activity against human T98G cells assessed as inhibition of cell proliferation measured after 72 hrs by MTT assay; assay type: functional, cell-based

SMILES: CCc1c2c(nc3ccc(OC(=O)N4CCC(N5CCCCC5)CC4)cc13)-c1cc3c(c(=O)n1C2)COC(=O)[C@]3(O)CC [IRINOTECAN]
- Activity [1]: 0.34%
- Activity [2]: 0.34%
- IC50 [3]: 6.9 nM
- Activity [4]: 7.84%
- IC50 [5]: 4.4 nM
- Activity [6]: 33.53%
- inhibition [7]: inactive
- Activity [8]: 5.3%
- Activity [9]: 13.18%
- Activity [10]: 87.7%
- IC50 [11]: 5.1 nM
- Activity [12]: 81.18%
- Activity [13]: 4.12%
- Activity [14]: 55.12%
- inhibition [15]: Active

SMILES: CC(=O)O[C@@]12CO[C@@H]1C[C@H](O)[C@@]1(C)C(=O)[C@H](O)C3=C(C)[C@@H](OC(=O)[C@H](O)[C@@H](NC(=O)OC(C)(C)C)c4ccccc4)C[C@@](O)([C@@H](OC(=O)c4ccccc4)[C@H]21)C3(C)C [DOCETAXEL ANHYDROUS]
- IC50 [3]: 2.7 nM
- IC50 [5]: 4 nM
- IC50 [11]: 4.7 nM

SMILES: COc1ccc2cc1Oc1ccc(cc1)Cc1nccc3c4c(c(OC)c(c13)Oc1c3c(cc(OC)c1OC)[C@H](C2)N(C)CC3)OCO4
- Activity [16]: 46.37%
- Activity [17]: Active
- Activity [18]: Active
- Activity [19]: 82.74%
- Activity [20]: Active
- Activity [21]: Active
- fold change (FC) [22]: 8.2
- Activity [23]: Active
- Activity [24]: 1.2%
- IC50 [3]: 8.2 nM
- Activity [25]: Active
- IC50 [5]: 7.2 nM
- IC50 [26]: 132 nM
- Activity [27]: Active
- IC50 [28]: 661 nM
- IC50 [29]: 73 nM
- Activity [30]: Active
- IC50 [31]: 180 nM
- Activity [32]: 8.7%
- fold change (FC) [33]: 3.3
- Activity [34]: Active
- Activity [35]: 4.83%
- inhibition [36]: Active
- IC50 [37]: 467 nM
- Activity [38]: Active
- Activity [39]: Active
- IC50 [11]: 5.9 nM
- Activity [40]: 26.2%
- Activity [41]: 7.36%
- fold change (FC) [42]: 9.3
- Activity [43]: 0.15%
- Activity [44]: 69.82%
- fold change (FC) [45]: 12.9
- Activity [46]: 41%
- IC50 [47]: 145 nM
- IC50 [48]: 382 nM
